Molecules are shown by their SMILES.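 Dose response: 5 concentrations. Exposure: 48 h. Format: 96-well plates. Endpoint: linear interpolation; highest concentration if not reached. GI50: concentration for 50% inhibition of growth.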 Calls of active or inactive are those of the source. Rule as the data show it: active = GI50 up to about 1.1 µM and inactive = higher.

Test systems include 786-0; ACHN; COLO 205; HCT-15; Hs-578T; IGROV-1; M14; MDA-MB-231; MDA-MB-435; MOLT-4; Malme-3M; NCI-H226; NCI-H522; NCI/ADR-RES; OVCAR-4; SF-295; SF-539; SNB-75; SR; UACC-62.
What all share (assay): inhibition of tumour cell growth, NCI panel, 48 h

In the case of `c1cc(CSSCc2ccncc2)ccn1`, the GI50 was 10.4 µM (inactive) with 786-0; 42.2 µM (inactive) with ACHN; 8.11 µM (inactive) with COLO 205; 19.4 µM in the assay with HCT-15; 29.2 µM (inactive) with Hs-578T; 30.5 µM (inactive) in the assay on IGROV-1. The GI50 in the assay on M14 was 11.3 µM (inactive); in the assay with MDA-MB-231 it was 25.9 µM (inactive); with MDA-MB-435, 20.6 µM (inactive); with MOLT-4, 3.21 µM (inactive); in the assay on Malme-3M it was 24.9 µM (inactive); with NCI-H226, 30.6 µM (inactive). Also, the GI50 in the assay with NCI-H522 was 12.9 µM (inactive); in the assay with NCI/ADR-RES it was 30.5 µM (inactive); in the assay on OVCAR-4 it was > 74.3 µM (inactive); in the assay on SF-295, 37.6 µM (inactive); in the assay on SF-539, 8.02 µM (inactive); in the assay with SNB-75, 57.1 µM (inactive). In addition, the GI50 with SR was 3.44 µM (inactive); in the assay on UACC-62, 24.9 µM (inactive).

With `O=C(O)CCCSc1nc2ccccc2s1`, the GI50 was > 100 µM (inactive) in the assay on 786-0; > 100 µM (inactive) with ACHN; > 100 µM (inactive) in the assay on COLO 205; more than 100 µM in the assay on HCT-15; > 100 µM (inactive) in the assay on Hs-578T; > 100 µM (inactive) in the assay with IGROV-1. Besides, the GI50 in the assay on M14, in the assay with MDA-MB-231, in the assay with MDA-MB-435, in the assay with MOLT-4, with Malme-3M and in the assay with NCI-H226 was > 100 µM (inactive) each time. The GI50 in the assay with NCI-H522, in the assay with NCI/ADR-RES, with OVCAR-4, in the assay with SF-295, in the assay with SF-539 and in the assay on SNB-75 was > 100 µM (inactive) in each case. Moreover, the GI50 in the assay with SR and in the assay with UACC-62 was > 100 µM (inactive) each time.

Take `CCCCCC(=O)Nc1[nH]nnc1C(N)=O`: the GI50 in the assay on 786-0 was > 100 µM (inactive); with ACHN it was > 100 µM (inactive); in the assay on COLO 205 it was > 100 µM (inactive); in the assay on HCT-15, more than 100 µM; with Hs-578T, > 100 µM (inactive); with IGROV-1 it was > 100 µM (inactive). The GI50 in the assay with M14, with MDA-MB-231, in the assay with MDA-MB-435, in the assay with MOLT-4, with Malme-3M and with NCI-H226 was > 100 µM (inactive) throughout. The GI50 in the assay with NCI-H522, with NCI/ADR-RES, in the assay on OVCAR-4, with SF-295, with SF-539 and in the assay on SNB-75 was > 100 µM (inactive) each time. The GI50 in the assay on SR and with UACC-62 was > 100 µM (inactive) throughout.

Take `Clc1ccc(-c2nn3c(COc4cccc(OCc5nnc6sc(-c7ccc(Cl)cc7)nn56)c4)nnc3s2)cc1`: the GI50 in the assay with 786-0 was 15.1 µM (inactive); in the assay with ACHN it was 22.4 µM (inactive); in the assay on COLO 205, 29.2 µM (inactive); with HCT-15, 27.5 µM; with Hs-578T it was 59 µM (inactive); with IGROV-1, 26.8 µM (inactive). Further, the GI50 was 27.4 µM (inactive) in the assay on M14; 21.2 µM (inactive) with MDA-MB-231; 19.4 µM (inactive) in the assay with MDA-MB-435; 14.3 µM (inactive) in the assay with MOLT-4; 19.2 µM (inactive) with Malme-3M; > 100 µM (inactive) in the assay on NCI-H226. Besides, the GI50 with NCI-H522 is 22.8 µM (inactive); in the assay with NCI/ADR-RES, 36.9 µM (inactive); with OVCAR-4, 12.9 µM (inactive); in the assay on SF-295, 31.3 µM (inactive); with SF-539 it was 26.9 µM (inactive); in the assay on SNB-75 it was 23 µM (inactive). Moreover, the GI50 in the assay with SR was 11.2 µM (inactive); with UACC-62 it was 23.2 µM (inactive).

Take `CCOC(=O)CC[C@@H](NC(=O)c1ccc(NCc2ccc3nc(OC)c(OC)nc3c2)cc1)C(=O)OCC`: the GI50 in the assay with 786-0 was 59.4 µM (inactive); in the assay with ACHN, 22.3 µM (inactive); with COLO 205, 28.6 µM (inactive); in the assay on HCT-15, more than 87.3 µM; with Hs-578T, > 29.9 µM (inactive); in the assay with IGROV-1, 22.5 µM (inactive). For the same compound, the GI50 in the assay on M14 was 16.3 µM (inactive); with MDA-MB-231, 36.1 µM (inactive); with MDA-MB-435 it was 31.4 µM (inactive); in the assay with MOLT-4 it was 16.6 µM (inactive); in the assay with Malme-3M, 19.5 µM (inactive); with NCI-H226 it was 58.7 µM (inactive). Further, the GI50 with NCI-H522 is 19.9 µM (inactive); in the assay on NCI/ADR-RES, > 100 µM (inactive); in the assay on OVCAR-4, 38.9 µM (inactive); in the assay on SF-295, 70.8 µM (inactive); in the assay with SF-539 it was 18.5 µM (inactive); in the assay with SNB-75 it was 14.5 µM (inactive). Also, the GI50 in the assay with SR was 25.1 µM (inactive); in the assay on UACC-62 it was 15.5 µM (inactive).

Consider `CC(=O)c1cccc2c1CC1(C2)Cc2ccc3c(c2C1=O)CCC3` (stereo not given), for which the GI50 in the assay with 786-0 is 41.2 µM (inactive); in the assay on ACHN it was 47.9 µM (inactive); in the assay on COLO 205, 26.5 µM (inactive); in the assay with HCT-15, 33.6 µM; in the assay on Hs-578T, 32.7 µM (inactive); with IGROV-1, 74 µM (inactive). Also, the GI50 in the assay on M14 was 46.7 µM (inactive); in the assay on MDA-MB-231, 32.6 µM (inactive); with MDA-MB-435, 32.1 µM (inactive); with MOLT-4, 25.3 µM (inactive); in the assay on Malme-3M, 14.3 µM (inactive); in the assay with NCI-H226, 23.9 µM (inactive). In addition, the GI50 with NCI-H522 was 17 µM (inactive); with NCI/ADR-RES, 12.7 µM (inactive); in the assay with OVCAR-4, 29.5 µM (inactive); in the assay with SF-295 it was 43.2 µM (inactive); in the assay with SF-539, 82.2 µM (inactive); with SNB-75 it was 35.9 µM (inactive). Further, the GI50 was 14.8 µM (inactive) in the assay with SR and 78.5 µM (inactive) in the assay on UACC-62.

In the case of `O=[N+]([O-])c1cccc2nc3ccccc3c(NCCC[N+]3([O-])CCOCC3)c12`, the GI50 is 0.116 µM (active) in the assay on 786-0; 0.65 µM (active) with ACHN; 0.0731 µM (active) with COLO 205; 1.36 µM with HCT-15; 0.433 µM (active) in the assay with Hs-578T; 0.15 µM (active) with IGROV-1. Also, the GI50 with M14 is 0.238 µM (active); with MDA-MB-231 it was 0.247 µM (active); with MDA-MB-435 it was 0.157 µM (active); with MOLT-4, 0.0687 µM (active); in the assay on Malme-3M, 0.162 µM (active); in the assay on NCI-H226, 0.186 µM (active). Also, the GI50 is 0.0631 µM (active) in the assay with NCI-H522; 11.4 µM (inactive) in the assay with NCI/ADR-RES; 0.12 µM (active) in the assay on OVCAR-4; 0.275 µM (active) in the assay with SF-295; 0.275 µM (active) with SF-539; 0.195 µM (active) with SNB-75. Besides, the GI50 in the assay with SR was 0.026 µM (active); with UACC-62, 0.154 µM (active).

For `COCn1c2ccc(OC(C)=O)cc2c2c(=O)oc(C)nc21`, the GI50 with 786-0 is > 100 µM (inactive); in the assay on ACHN, > 100 µM (inactive); with COLO 205, > 100 µM (inactive); in the assay with HCT-15, more than 100 µM; in the assay with Hs-578T, > 100 µM (inactive); in the assay on IGROV-1 it was > 100 µM (inactive). The GI50 in the assay on M14, in the assay with MDA-MB-231, in the assay with MDA-MB-435, with MOLT-4, with Malme-3M and with NCI-H226 was > 100 µM (inactive) throughout. In addition, the GI50 in the assay on NCI-H522, in the assay with NCI/ADR-RES, with OVCAR-4, with SF-295, with SF-539 and with SNB-75 was > 100 µM (inactive) each time. The GI50 in the assay on SR and in the assay on UACC-62 was > 100 µM (inactive) in each case.

`C=C1CCC(CC[C@@H]2CC[C@]3(OC2)O[C@@]2(O)CC[C@]3(C)OC2(C)C)C(C)(C)[C@H]1C/C=C1/C(=O)OC[C@@H]1O` (stereo not given in full): the GI50 in the assay on 786-0 was 2.96 µM (inactive); in the assay on ACHN, 2.65 µM (inactive); in the assay on COLO 205, 5.43 µM (inactive); in the assay on HCT-15 it was 1.22 µM; in the assay on Hs-578T, 4.2 µM (inactive); with IGROV-1, 2.91 µM (inactive). The GI50 is 2.48 µM (inactive) in the assay with M14; 1.69 µM (inactive) in the assay on MDA-MB-231; 1.86 µM (inactive) in the assay on MDA-MB-435; 1.59 µM (inactive) in the assay on MOLT-4; 2.39 µM (inactive) in the assay with Malme-3M; 2.29 µM (inactive) in the assay with NCI-H226. The GI50 is 1.29 µM (inactive) in the assay with NCI-H522; 0.906 µM (active) with NCI/ADR-RES; 0.263 µM (active) with OVCAR-4; 0.348 µM (active) in the assay on SF-295; 3.17 µM (inactive) in the assay with SF-539; 7.29 µM (inactive) in the assay with SNB-75. For the same compound, the results for the GI50 in the assay on SR and with UACC-62 were 1.54 µM (inactive) and 1.34 µM (inactive), respectively.

In the case of `O=CN1CCN(C(=O)c2ccco2)C1=S`, the GI50 in the assay on 786-0 is 3.13 µM (inactive); with ACHN it was 10 µM (inactive); in the assay on COLO 205 it was 10.1 µM (inactive); in the assay with HCT-15, 7.83 µM; with Hs-578T, 22 µM (inactive); with IGROV-1, 9.38 µM (inactive). Moreover, the GI50 in the assay on M14 is 8.85 µM (inactive); in the assay with MDA-MB-231, 17.3 µM (inactive); in the assay with MDA-MB-435 it was 5.13 µM (inactive); with MOLT-4 it was 8.24 µM (inactive); with Malme-3M, 11.3 µM (inactive); in the assay on NCI-H226, 22.9 µM (inactive). Besides, the GI50 is 3.67 µM (inactive) in the assay with NCI-H522; 23.4 µM (inactive) with NCI/ADR-RES; 19.7 µM (inactive) in the assay with OVCAR-4; 22.5 µM (inactive) in the assay with SF-295; 4.38 µM (inactive) in the assay on SF-539; 12.5 µM (inactive) with SNB-75. In addition, the GI50 in the assay on SR was 2.11 µM (inactive); in the assay with UACC-62, 8.04 µM (inactive).
